Measurements published in US20240199601A1, “QUINONE COMPOUND AND PHARMACEUTICAL USE THEREOF” (NANJING SHUPENG LIFE SCIENCE CO., LTD., priority 2021, published 2024).

Columns and labels:
[1] = system: oxaliplatin-induced hyperalgesia; experiment: Oxaliplatin chemotherapy pain model; type: in vivo, C57LB6 mice; settings: 40 mg/kg by gavage, oxaliplatin 3 mg/kg i.p., mice, Von Frey
Method: A total of 30 10-week-old wild male C57LB6 mice were selected.
On DAY 0, the mice were allowed to adapt to the environment for 7 days first, basic mechanical pain thresholds were detected and were basically about 1-1.4 g, and a total of 30 mice were used in this test without abnormal mice.
On DAYS 1-5, the mice were randomly divided into 3 groups including a blank control group (n=10), a model control group (n=10) and an SP3101 group (40 mg/kg, n=10). The mice in the SP3101 group were administrated with an SP3101 aqueous solution by gavage, the mice in the model control group were administrated with double distilled water by gavage, and the mice in the model control group and the SP3101 group were administrated with oxaliplatin (3 mg/kg) by intraperitoneal injection 0.5 hour later. The same operations were continuously performed for 5 days. On DAY 5, the pain thresholds were detected by using Von Frey fibrils.
On DAYS 6-10, the mice were only administered with SP3101 and water by gavage.
On DAYS 11-15, the operations on DAYS 1-5 were repeated, and on DAY 11, the pain thresholds were detected by using Von Frey fibrils.
On DAYS 16-20, the mice were only observed, and on DAY 16 and DAY 20, the mechanical pain thresholds were detected.

[2] = system: AMPK; experiment: AMPK agonist test in RAW264.7 cells (protein hybridization, p-AMPK); type: cell-based; settings: 0.1 μM, 24 hours
Method: (§1) RAW264.7 cells were inoculated into two six-well plates and enabled to grow to a density of about 90%, and SP3101 and SP3102 of different concentrations were added, respectively. 24 hours later, the cells were lysed with a radio immunoprecipitation assay (RIPA) lysis buffer, and the expression of proteins was detected by protein hybridization.
(§2) Phosphorylation of serine at the 127th site of AMPK is used as an activation marker. […] It can be seen that the compounds, represented by the SP3101 and the SP3102, of the present invention are used as an AMPK agonist.

[3] = system: inflammatory pain model with AMPK inhibited; experiment: Long-acting analgesic mechanism: CFA pain model with AMPK inhibitor compound c; type: in vivo, SD rats; settings: compound c (Dorsomorphin) into caudal vein half an hour before oral SP3101 20 mg/kg, rats
Method: Similar to the modeling method in Activity Test 1, 100 uL of a complete Freund's adjuvant was injected into the soles of the left feet of SD rats with a body weight of 200-250 g, mechanical pain thresholds of the left feet were detected by an ALMEMO2490 data collector 24 hours later, and the rats with a pain threshold of greater than 15 were abandoned. On the second day of modeling, 100 μL of a compound c as an AMPK inhibitor (Dorsomorphin, CAS No.866405-64-3, CC, 0.4 mg/ml) was injected into the caudal vein of each rat, the rats were orally administered with SP3101 (20 mg/kg) half an hour later, and the pain thresholds were detected after 1.5 hours and 24 hours, respectively.

[4] = system: movement of the mice in an open field; experiment: Sedation test, open field test (OFT); type: in vivo, B6 mice; settings: single intraperitoneal injection 20 or 50 mg/kg, 2 hours after administration
Method: A total of 15 12-week-old male B6 mice were selected and allowed to adapt to the environment for three days. The mice were randomly divided into 3 groups including: (1) a blank control group (n=5), (2) a low-dose SP3101 group at a dose of 20 mg/kg (n=5) and (3) a high-dose SP3101 group at a dose of 50 mg/kg (n=5). The mice were administered by intraperitoneal injection at a single dose according to the groups, where the mice in the blank control group were administered with an equal volume of normal saline by intraperitoneal injection. 2 hours after the administration, the mice were traced by a video tracking and detection system in an open field test (OFT), followed by behavioral evaluation.

[5] = system: antioxidant transcription factor (Nrf2); experiment: Nrf2 expression in RAW264.7 cells (protein hybridization); type: cell-based; settings: different concentrations, 24 hours
Method: as §1, §2

[6] = system: paclitaxel-induced hyperalgesia; experiment: Paclitaxel chemotherapy pain model; type: in vivo, B6 mice; settings: 40 mg/kg by gavage once a day for 15 days, paclitaxel 4 mg/kg i.p. x4, mice, Von Frey 0.07 g and 0.4 g
Description: A total of 30 8- to 10-week-old male B6 mice were selected and allowed to adapt to the environment for three days.
On DAY 0, mechanical pain thresholds were detected by using Von Frey fibrils, the mice with abnormal pain thresholds were abandoned, and the basic pain thresholds were basically about 0.6-1.0 g. According to the basic pain thresholds, a pain threshold of 0.07 g was used in this test, and a pain threshold of 0.4 g was used in subsequent detection. Behaviors such as foot lifting and foot licking were identified as positive responses. […] The mice were randomly divided into the following groups: (1) a model control group (PC, n=10), (2) an SP3101 group administered at a dose of 40 mg/kg (n=10) by gavage and (3) a blank control group (NC). The mice in the model control group were administrated with double distilled water by gavage, the mice in the model control group and the SP3101 group were administrated with paclitaxel (4 mg/kg) by intraperitoneal injection 0.5 hour later, and the mice in the blank control group were administrated with normal saline by intraperitoneal injection. […] The first modeling day was determined as DAY 0. […] On DAY 0, 3, 7, 9, 14, 18 and 21, the mechanical pain thresholds were detected.

For `O=C1C(=O)c2nc(O)cc(C(=O)O)c2-c2[nH]ccc21` [SP3101, 4,5-dioxo-4,5-dihydro-1H-pyrrolo[2,3-f]quinone-7-hydroxy-9-carboxylic acid], which “prevention of oxaliplatin-induced hyperalgesia” value [1] is on record?
Its value is “obviously prevent oxaliplatin-induced hyperalgesia”.

And the “activation of AMPK (expression of p-AMPK)” value [2]?
The value was “obviously activate the AMPK”.

And the “long-acting (24 hours) analgesic effect while AMPK is inhibited” value [3]?
The value was “eliminated”.

What about the “short-acting (1.5 hours) analgesic effect while AMPK is inhibited” value [3] of the same molecule?
Its value is “not affected”.

What about the “movement of the mice in an open field (sedative effect)” value [4] of the same molecule?
The value was “obviously reduces movement of the mice in an open field”.

What about the “expression of antioxidant transcription factor (Nrf2)” value [5] of the same molecule?
Its value is “increased in a dose-dependent manner”.

What about the “alleviation of paclitaxel-induced hyperalgesia” value [6] of the same molecule?
Its value is “obvious effect of alleviating the paclitaxel-induced hyperalgesia”.
